Test results published in patent US8562949B2, “Radiolabeled dihydrotetrabenazine derivatives and their use as imaging agents” (The Trustees of the University of Pennsylvania, priority 2006, dated 2013).
Like-named read-outs stand apart in the source and are kept apart here. One block for each molecule: values may come before it.

Key:
VMAT2 [1] = target: VMAT2 (Mus musculus, UniProt Q8BRU6); assay: Saturation binding of 18F ligands in mouse striatal homogenates; design: The basal forebrain regions of rat and mouse brains were then dissected; from tissue; host or cells: mouse striatal homogenate; mouse brain coronal sections; conditions: estimated based on S.A.=2000 Ci/mmole
Chain of VMAT2 (Mus musculus, UniProt Q8BRU6) (Q8BRU6 whole entry): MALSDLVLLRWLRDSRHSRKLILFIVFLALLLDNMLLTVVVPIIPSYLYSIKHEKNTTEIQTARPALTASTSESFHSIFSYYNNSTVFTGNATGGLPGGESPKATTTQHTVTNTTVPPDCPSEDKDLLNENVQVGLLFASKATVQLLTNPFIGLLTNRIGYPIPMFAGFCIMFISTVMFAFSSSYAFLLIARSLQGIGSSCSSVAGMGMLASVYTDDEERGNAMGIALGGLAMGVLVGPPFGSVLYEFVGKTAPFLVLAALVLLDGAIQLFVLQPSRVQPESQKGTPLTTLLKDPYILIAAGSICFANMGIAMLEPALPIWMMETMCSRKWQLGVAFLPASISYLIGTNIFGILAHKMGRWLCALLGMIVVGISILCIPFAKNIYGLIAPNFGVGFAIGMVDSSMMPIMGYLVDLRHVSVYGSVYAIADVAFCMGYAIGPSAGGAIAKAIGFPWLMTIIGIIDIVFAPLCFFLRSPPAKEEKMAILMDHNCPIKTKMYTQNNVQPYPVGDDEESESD
Experimental: The basal forebrain regions of rat and mouse brains were then dissected. The tissue homogenates were prepared in 50 mM Hepes, pH 7.5 and 0.3 M sucrose. The specific binding of ^3H or ^18F ligands were determined following the procedures described (Scherman D, Raisman R, Ploska A, Agid Y., [^3H]Dihydrotetrabenazine, a new in vitro monoaminergic probe for human brain, J. Neurochem., 1988:50:1131-36). Total volume of reaction for the assay was 0.2 ml. […] In saturation experiments, increasing concentrations of labeled ligand […] in 50 μl buffer were incubated with 100 μl of homogenates (100-250 μg). Incubation was carried out routinely at room temperature for 90 min. The samples were then filtered through glass fiber filters No. 25 (Schleicher and Schuell, Keene, N.H.) and the bound radioactivity was determined for ^18F in a gamma counter (Packard 5000) with 70% efficiency. Filters containing bound ^3H ligand were dissolved in 7 ml Ecolite(+) overnight and the radioactivity was counted next day in the scintillation counter (Beckman) with 65% counting efficiency. […] Nonspecific binding was determined in the presence of 10 μM tetrabenazine. Both saturation and competition experiments were analyzed using the nonlinear least-square curve fitting program LIGAND. […]

[2] = Blocking of pancreatic signal by DTBZ in rats; assay type: in vivo; conditions: rat
VMAT-2 = test system: T1, VMAT-2; assay: Blocking of pancreatic signal by DTBZ in rats; assay type: in vivo; conditions: rat
T1 construct: from tissue; host or cells: living rats; organs dissected after iv injection

VMAT2 sites = VMAT2 sites (Mus musculus, UniProt Q8BRU6); conditions: lesioned mice
Chain of VMAT2 sites (Q8BRU6 whole entry): as above

[3] = Human radiation dosimetry estimates from mouse biodistribution; conditions: adult male model
Text: From the organ biodistribution data in Table 4 of Example 7, human radiation dosimetry estimates were calculates. In the mass based extrapolation, the concentration in the animal organs is converted to a concentration in human organs by multiplying the animal concentration by a ratio of the total body weight of the animals and humans (Kirschner, et al., 1975). Then the percent in the human organs is derived using organ masses taken from a standard model of the human body for adult males (Cristy and Eckerman, 1987). Data were fit using the SAAM II software (Foster and Barrett, 1999). Time integrals of activity were calculated and converted to residence times (Loevinger, et al., 1988); organ residence times were entered into the OLIND/EXM software (STabin, et al., 2005) using the adult male model. No excretion of activity was assumed; any activity not accounted for was considered to be uniformly distributed throughout the remainder of the body or removed only by physical decay. […] The estimated effective dose (0.047 rem/mCi) also compares favorably to radiation doses received with other approved radiopharmaceuticals.

VMAT2 [4] = target: VMAT2 (Rattus norvegicus, UniProt Q01827); assay: Blocking of pancreatic signal by DTBZ in rats; assay type: in vivo; design: from tissue; host or cells: living rats; organs dissected after iv injection; conditions: 30 min, DTBZ 3.8 mg/kg pretreatment
Chain of VMAT2 (Rattus norvegicus, UniProt Q01827) (Q01827 whole entry): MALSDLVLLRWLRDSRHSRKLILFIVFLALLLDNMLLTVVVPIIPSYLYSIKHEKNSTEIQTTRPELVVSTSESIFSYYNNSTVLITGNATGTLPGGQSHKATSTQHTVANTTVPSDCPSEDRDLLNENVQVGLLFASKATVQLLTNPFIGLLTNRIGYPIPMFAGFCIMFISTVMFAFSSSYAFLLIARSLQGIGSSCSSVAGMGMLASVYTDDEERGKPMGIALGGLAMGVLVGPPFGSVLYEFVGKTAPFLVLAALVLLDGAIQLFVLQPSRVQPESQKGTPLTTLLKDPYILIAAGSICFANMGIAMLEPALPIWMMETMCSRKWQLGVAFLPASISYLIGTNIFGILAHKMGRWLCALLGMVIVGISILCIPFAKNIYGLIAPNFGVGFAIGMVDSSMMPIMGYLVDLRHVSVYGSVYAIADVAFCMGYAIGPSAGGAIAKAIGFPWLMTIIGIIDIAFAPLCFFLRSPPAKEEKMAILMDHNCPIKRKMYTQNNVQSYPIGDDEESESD

[5] = Metabolic stability in mouse brain; assay type: in vivo, mice; conditions: mouse striatum, 30 minutes post-injection, ethyl acetate extraction/TLC
Experimental: Two mice were injected with 200 μCi [^18F]FP-(+)-DTBZ and sacrificed at 30 minutes post-injection. The brains were removed and the striatal regions were dissected out. The striatal homogenates (prepared in PBS, 10% w/v) were extracted with 0.5 mL of ethyl acetate in the presence of a small amount of carrier (10 μg of […]). Extraction was repeated three times and the ethyl acetate layers and the buffer layers were counted separately to determine the percent extracted. […] A control sample ([^18F]FP-(±)-DTBZ mixed with normal mouse striatal homogenates in situ) was carried out in parallel for comparison.

SMILES: COc1cc2c(cc1OCCC[18F])CCN1CC(CC(C)C)C(O)CC21 (racemic) [[^18F]6b]
Kd (VMAT2 [1]): 0.48 nM

tissue uptake at 30 min ([2]; blood, 30 min Blocking, DTBZ 3.8 mg/kg pretreatment, read-out: Blood): 0.32 ± 0.04 %ID/g
tissue uptake at 30 min ([2]; blood, 30 min Control, read-out: Blood): 0.2 ± 0.01 %ID/g
tissue uptake at 30 min ([2]; cortex, 30 min Blocking, DTBZ 3.8 mg/kg pretreatment, read-out: Regional Brain Distribution Cortex): 0.26 ± 0.05 %ID/g
tissue uptake at 30 min ([2]; cortex, 30 min Control, read-out: Regional Brain Distribution Cortex): 0.36 %ID/g
tissue uptake at 30 min ([2]; hippocampus, 30 min Blocking, DTBZ 3.8 mg/kg pretreatment, read-out: Regional Brain Distribution Hippocampus): 0.25 ± 0.03 %ID/g
tissue uptake at 30 min ([2]; hippocampus, 30 min Control, read-out: Regional Brain Distribution Hippocampus): 0.54 ± 0.03 %ID/g
tissue uptake at 30 min ([2]; hypothalamus, 30 min Blocking, DTBZ 3.8 mg/kg pretreatment, read-out: Regional Brain Distribution Hypothalamus): 0.25 ± 0.04 %ID/g
tissue uptake at 30 min ([2]; hypothalamus, 30 min Control, read-out: Regional Brain Distribution Hypothalamus): 1.2 ± 0.07 %ID/g
tissue uptake at 30 min ([2]; striatum, 30 min Blocking, DTBZ 3.8 mg/kg pretreatment, read-out: Regional Brain Distribution Striatum): 0.27 ± 0.02 %ID/g
tissue uptake at 30 min ([2]; striatum, 30 min Control, read-out: Regional Brain Distribution Striatum): 1.94 ± 0.03 %ID/g
tissue uptake at 30 min (VMAT-2; cerebellum, 30 min Blocking, DTBZ 3.8 mg/kg pretreatment, read-out: Regional Brain Distribution Cerebellum): 0.25 ± 0.03 %ID/g
tissue uptake at 30 min (VMAT-2; cerebellum, 30 min Control, read-out: Regional Brain Distribution Cerebellum): 0.36 %ID/g
tissue uptake at 30 min (VMAT-2; pancreas, 30 min Blocking, DTBZ 3.8 mg/kg pretreatment, read-out: Pancreas): 3.1 ± 0.3 %ID/g
tissue uptake at 30 min (VMAT-2; pancreas, 30 min Control, read-out: Pancreas): 4.39 ± 0.64 %ID/g
correlation (r) of lesioned-site uptake with [125I]IPT data (VMAT2 sites): 0.95
human radiation dose, liver and bone surface [3]: around 0.11 rem/mCi
human radiation dose, most organs [3]: 0.04-0.06 rem/mCi
Blocking, Pancreas (VMAT2 [4]): 30%
Blocking, Striatum (VMAT2 [4]): > 90%
degradation [5]: less than 5%
SMILES: COc1cc2c(cc1OCCC[18F])CCN1C[C@@H](CC(C)C)[C@H](O)C[C@H]21 [[^18F]-(+)-6b]
